The experiment has as its system BDF1 mice, P388 leukemia ip, median survival T/C. The experiment in a line: NCI In Vivo Anticancer Drug Screen. Data for tumor model P388 Leukemia (intraperitoneal) in B6D2F1 (BDF1) mice. To be noted: endpoint: median survival time, higher = longer survival. Put shortly: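 Reported as T/C, where T is the survival measurement in dosed animals and C the same measurement in vehicle controls.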

[1] abbreviates: dose: 50.0 mg/kg/injection, schedule: Q01DX009 (ip), vehicle: Klucel (hydroxypropylcellulose) (HPC).
Where [2] appears, read: dose: 50.0 mg/kg/injection, schedule: Q01DX009 (ip), vehicle: saline with Tween-80.
Where [3] appears, read: dose: 100.0 mg/kg/injection, schedule: Q01DX009 (ip), vehicle: Klucel (hydroxypropylcellulose) (HPC).
Where [4] appears, read: dose: 200.0 mg/kg/injection, schedule: Q01DX009 (ip), vehicle: saline with Tween-80.
Where [5] appears, read: dose: 200.0 mg/kg/injection, schedule: Q01DX009 (ip), vehicle: saline.
Setting [6] is: dose: 400.0 mg/kg/injection, schedule: Q01DX009 (ip), vehicle: Klucel (hydroxypropylcellulose) (HPC).
[7] abbreviates: dose: 100.0 mg/kg/injection, schedule: Q01DX009 (ip), vehicle: saline with Tween-80.
Where [8] appears, read: dose: 50.0 mg/kg/injection, schedule: Q01DX005 (ip), vehicle: saline.
The mark [9] stands for this setting: dose: 100.0 mg/kg/injection, schedule: Q01DX005 (ip), vehicle: saline.
Setting [10] is: dose: 200.0 mg/kg/injection, schedule: Q01DX005 (ip), vehicle: saline.
[11] abbreviates: dose: 100.0 mg/kg/injection, schedule: Q04DX003 (ip), vehicle: saline with Tween-80.
The mark [12] stands for this setting: dose: 200.0 mg/kg/injection, schedule: Q04DX003 (ip), vehicle: saline with Tween-80.
[13] abbreviates: dose: 200.0 mg/kg/injection, schedule: Q01DX009 (ip), vehicle: Klucel (hydroxypropylcellulose) (HPC).
Where [14] appears, read: dose: 400.0 mg/kg/injection, schedule: Q01DX009 (ip), vehicle: saline with Tween-80.
Setting [15] is: dose: 400.0 mg/kg/injection, schedule: Q04DX003 (ip), vehicle: saline with Tween-80.

SMILES strings stand for the structures. Several values for one entry are separate records, joined by “and”; a condition that tells them apart may be missing. Equal entries are not always repeated. Toxic doses and inconclusive results are not listed. Non-standard residues stand in square brackets, D forms with d. Residues, ends and D or L forms follow the SMILES beside them. ξ: configuration not given here. *: point of attachment. Cbz = O=C(OCc1ccccc1)*; Boc = CC(C)(C)OC(=O)*; ξP = O=C(O)C1CCCN1

`[O-][n+]1c(CN2CCCCC2)nc2cccc3c2c1-c1ccccc1-3`: the T/C (dose: 12.5 mg/kg/injection, schedule: Q03HX008 (ip), vehicle: saline) is 92 % of control; the T/C (dose: 12.5 mg/kg/injection, schedule: Q03HX016 (ip), vehicle: saline) was 100 % of control; the T/C (dose: 12.5 mg/kg/injection, schedule: Q03HX024 (ip), vehicle: saline) was 96 % of control; the T/C (dose: 25.0 mg/kg/injection, schedule: Q01DX009 (ip), vehicle: saline with Tween-80) was 105 % of control; the T/C (dose: 25.0 mg/kg/injection, schedule: Q03HX008 (ip), vehicle: saline) is 95 % of control; the T/C (dose: 25.0 mg/kg/injection, schedule: Q03HX016 (ip), vehicle: saline) is 99 % of control. Further, the T/C is 93 % of control (dose: 25.0 mg/kg/injection, schedule: Q03HX024 (ip), vehicle: saline); 116 % of control under setting [1]; 108 % of control and 116 % of control under setting [2]; 95 % of control (dose: 50.0 mg/kg/injection, schedule: Q03HX008 (ip), vehicle: saline); 94 % of control (dose: 50.0 mg/kg/injection, schedule: Q03HX016 (ip), vehicle: saline); 110 % of control (dose: 50.0 mg/kg/injection, schedule: Q03HX024 (ip), vehicle: saline). In addition, the T/C by setting is: (dose: 50.0 mg/kg/injection, schedule: Q08HX027 (ip), vehicle: saline) 113 % of control; under setting [3], 100 % of control; (dose: 100.0 mg/kg/injection, schedule: Q03HX008 (ip), vehicle: saline) 92 % of control; (dose: 100.0 mg/kg/injection, schedule: Q03HX016 (ip), vehicle: saline) 90 % of control; (dose: 100.0 mg/kg/injection, schedule: Q03HX024 (ip), vehicle: saline) 115 % of control; (dose: 100.0 mg/kg/injection, schedule: Q08HX027 (ip), vehicle: saline) 119 % of control. In addition, the T/C was 91 % of control (dose: 150.0 mg/kg/injection, schedule: Q01DX009 (oral), vehicle: saline); 158 % of control under setting [4]; 222 % of control under setting [5]; 95 % of control (dose: 300.0 mg/kg/injection, schedule: Q01DX009 (oral), vehicle: saline); 151 % of control under setting [6]; 98 % of control (dose: 400.0 mg/kg/injection, schedule: Q01DX009 (oral), vehicle: saline). For the same compound, where the note is “dose: 600.0 mg/kg/injection, schedule: Q01DX009 (oral), vehicle: saline”, the T/C is 103 % of control.

Take `O=C1/C(=C\c2ccc(Cl)cc2Cl)SC(=S)N1Cc1ccco1`: the T/C is, setting by setting: under setting [2], 97 % of control; under setting [7], 91 % of control; under setting [4], 88 % of control.

With `O=C1C=C(Nc2nc(O)cc(=O)[nH]2)c2ccccc2C1=O`, the T/C was 100 % of control (dose: 37.5 mg/kg/injection, schedule: Q01DX001 (ip), vehicle: Klucel (hydroxypropylcellulose) (HPC)); 100 % of control (dose: 75.0 mg/kg/injection, schedule: Q01DX001 (ip), vehicle: Klucel (hydroxypropylcellulose) (HPC)); 100 % of control (dose: 150.0 mg/kg/injection, schedule: Q01DX001 (ip), vehicle: Klucel (hydroxypropylcellulose) (HPC)); 95 % of control (dose: 150.0 mg/kg/injection, schedule: Q04DX003 (ip), vehicle: Klucel (hydroxypropylcellulose) (HPC)).

Turning to `Nc1ccc(Nc2ccccc2)c(S(=O)(=O)O)c1`, the T/C by setting is: (dose: 50.0 mg/kg/injection, schedule: Q01DX009 (ip), vehicle: saline) 116 % of control; (dose: 100.0 mg/kg/injection, schedule: Q01DX009 (ip), vehicle: saline) 100 % of control; under setting [5], 108 % of control; (dose: 400.0 mg/kg/injection, schedule: Q01DX009 (ip), vehicle: saline) 104 % of control and 116 % of control.

Turning to `CSc1ccc(NC(=O)NNP(=S)(Oc2ccc(C(C)(C)C)cc2)Oc2ccc(C(C)(C)C)cc2)cc1`, the T/C (dose: 50.0 mg/kg/injection, schedule: Q01DX005 (ip), vehicle: saline with Tween-80) is 96 % of control and the T/C (dose: 100.0 mg/kg/injection, schedule: Q01DX005 (ip), vehicle: saline with Tween-80) is 96 % of control.

`COC(=O)C1=COC(C)C(C=O)C1CC(=O)O` (centres undefined): the T/C by setting is: (dose: 10.0 mg/kg/injection, schedule: Q04DX003 (ip), vehicle: saline) 113 % of control; (dose: 22.0 mg/kg/injection, schedule: Q04DX003 (ip), vehicle: saline) 122 % of control; (dose: 33.0 mg/kg/injection, schedule: Q04DX003 (ip), vehicle: saline) 120 % of control; (dose: 50.0 mg/kg/injection, schedule: Q04DX003 (ip), vehicle: saline) 172 % of control; (dose: 75.0 mg/kg/injection, schedule: Q04DX003 (ip), vehicle: saline) 95 % of control.

Take `O=C(O)C1CCCN1C(=O)C1CCCN1C(=O)OCc1ccccc1` (stereo not drawn) (Cbz-Pro-Pro-OH; configuration not given here): the T/C was 101 % of control under setting [8], 101 % of control under setting [9] and 107 % of control under setting [10].

For `O=C(O)c1cc(Br)c(Br)s1`, the T/C (dose: 50.0 mg/kg/injection, schedule: Q04DX003 (ip), vehicle: saline with Tween-80) is 91 % of control; the T/C under setting [11] was 100 % of control; the T/C under setting [12] was 112 % of control.

Regarding `C/C(=N\NC(=O)CC(=O)N/N=C(\C)c1ccncc1)c1ccncc1`, the T/C is, setting by setting: (dose: 75.0 mg/kg/injection, schedule: Q01DX009 (ip), vehicle: saline with Tween-80) 99 % of control; (dose: 150.0 mg/kg/injection, schedule: Q01DX009 (ip), vehicle: saline with Tween-80) 90 % of control; (dose: 300.0 mg/kg/injection, schedule: Q01DX009 (ip), vehicle: saline with Tween-80) 94 % of control.

With `C[C@]12CCC(=O)C=C1CC[C@@H]1C2=CC[C@@]2(C)[C@H]1CC[C@]2(C)O`, the T/C is 100 % of control (dose: 0.78 mg/kg/injection, schedule: Q01DX009 (ip), vehicle: Klucel (hydroxypropylcellulose) (HPC)); 90 % of control (dose: 1.56 mg/kg/injection, schedule: Q01DX009 (ip), vehicle: Klucel (hydroxypropylcellulose) (HPC)); 86 % of control (dose: 3.12 mg/kg/injection, schedule: Q01DX009 (ip), vehicle: Klucel (hydroxypropylcellulose) (HPC)); 87 % of control under setting [1]; 109 % of control (dose: 100.0 mg/kg/injection, schedule: Q04DX003 (ip), vehicle: Klucel (hydroxypropylcellulose) (HPC)); 87 % of control under setting [13]. Also, the T/C (dose: 200.0 mg/kg/injection, schedule: Q04DX003 (ip), vehicle: Klucel (hydroxypropylcellulose) (HPC)) was 104 % of control.

For the compound `CC(=O)Nc1ccc(C=Nc2ccc3c(c2)Cc2ccccc2-3)cc1`, the T/C is 109 % of control under setting [3], 118 % of control under setting [13] and 118 % of control under setting [6].

For the compound `Cc1ccc(/C=C/C(=O)c2ccc(Cl)cc2)cc1`, the T/C was 90 % of control under setting [7]; 95 % of control under setting [11]; 90 % of control under setting [4]; 109 % of control under setting [12]; 100 % of control under setting [14]; 109 % of control under setting [15].

Turning to `O=S(=O)(Nc1ccc(O)cc1)c1ccccc1`, the T/C reads like this: under setting [11], 100 % of control; under setting [12], 95 % of control; under setting [15], 104 % of control.

Take `CC(C)(C)OC(=O)NCC(=O)N1CCCC1C(=O)O` (stereo not drawn) (Boc-Gly-[ξP]-OH): the T/C reads like this: under setting [8], 92 % of control; under setting [9], 90 % of control; under setting [10], 100 % of control.

As to `CC(C)C1NC(=O)C2CCCN2C1=O` (centres undefined), the T/C runs as follows: under setting [7], 100 % of control; under setting [11], 109 % of control; under setting [4], 100 % of control; under setting [12], 113 % of control; under setting [14], 123 % of control; under setting [15], 118 % of control.

Consider `O=C1NN(c2ccccc2)C(=O)/C1=C\c1ccccc1O`, for which the T/C (dose: 350.0 mg/kg/injection, schedule: Q01DX009 (ip), vehicle: saline with Tween-80) is 97 % of control.

Consider `ClC1(c2ccccc2)c2ccc(Br)cc2-c2cc(Br)ccc21`, for which the T/C is 100 % of control (dose: 66.0 mg/kg/injection, schedule: Q01DX009 (ip), vehicle: saline with Tween-80); 121 % of control under setting [7]; 88 % of control under setting [13].

(Values after PubChem BioAssay AID328 (DTP/NCI, 2004).)
